According to US20140212981A1, “METHODS AND SYSTEMS FOR DETERMINING THE AMOUNT OF THIOPURINE METABOLITES IN A SAMPLE” (Laboratory Corporation of America Holdings, priority 2012, published 2014):
Each block holds one compound with its values, some of them ahead of it.

Tests used:
[1] = cited from earlier work; for Therapeutic Range: metabolite level in red blood cells of subjects on thiopurine treatment, exemplary therapeutic levels
[2] = Acid-promoted conversion (hydrolysis) as a function of time; type: physicochemical; conditions: FIG. 2C
From the text: The method comprises converting the one or more 6-thioguanine nucleotide compounds to 6-thioguanine or a 6-thioguanine hydrolysis product. The converting can be carried out in any manner known to those of skill in the art. In some embodiments, the converting comprises contacting the one or more 6-thioguanine nucleotide compounds with a sulfur-containing reducing agent to yield one or more reduced 6-thioguanine nucleotide compounds. Any suitable sulfur-containing reducing agent can be used. In some embodiments, the sulfur-containing reducing agent is dithioerythritol. In some such embodiments, the method comprises contacting the one or more reduced 6-thioguanine nucleotide compounds with an acidic hydrolyzing agent. Any suitable acidic hydrolyzing agent can be used. In some embodiments, the acidic hydrolyzing agent is perchloric acid, nitric acid, sulfuric acid, or a combination thereof. In some such embodiments, the acidic hydrolyzing agent is perchloric acid.
In some embodiments the hydrolysis of 6-methylmercaptopurine nucleotide compounds proceeds according to Scheme 2 below. […] The 6-methylmercaptopurine is readily hydrolyzed in the presence of acid to form a 6-methylmercaptopurine hydrolysis product comprising 4-amino-5-(methylthio) carbonyl imidazole. […]

Compound: 6-methylmercaptopurine nucleotides [6-MMPNs]
Therapeutic Range [1]: <5700 pmol/8 × 10^8RBC
Alert Values ([1]; metabolite level in red blood cells, levels in this range require modulation of therapy): >5700 pmol/8 × 10^8RBC

Rate of acid-promoted conversion relative to unlabeled 6-MMP ([2]; D3-6-MMP to D3-6-MMP*): same rate as unlabeled 6-MMP
Compound: [2H]C([2H])([2H])Sc1ncnc2[nH]cnc12 [D3-6-MMP]

Time for acid-promoted conversion to hydrolysis product ([2]; 6-MMP to 6-MMP*, perchloric acid hydrolysis): less than 140 minutes
Compound: CSc1ncnc2nc[nH]c12 [6-MMP, 6-methylmercaptopurine]

Compound: 6-thioguanine nucleotides [6-TGNs]
Therapeutic Range [1]: 235 - 450 pmol/8 × 10^8RBC
